Converted amounts (≈) assume the structure as drawn.
Assays:
Angiopoietin-1 receptor [1] = target: T1, Angiopoietin-1 receptor (Homo sapiens, UniProt Q02763); assay: Inhibition of Tie2 after 90 mins by HTRF assay
[2] = target: T2, Vascular endothelial growth factor receptor 2 (Homo sapiens, UniProt P35968); assay: Inhibition of KDR after 90 mins by HTRF assay
[3] = Clearance in Sprague-Dawley rat at 2 mg/kg, iv; type: ADME, organism-based; design: dose 2 mg/kg, route intravenous; conditions: in vivo
Angiopoietin-1 receptor [4] = target: T1, Angiopoietin-1 receptor; assay: Inhibition of Tie2 autophosphorylation in EA.hy926 cells after […]; type: cell-based
[5] = Half life in Sprague-Dawley rat at 2 mg/kg, iv; type: ADME, organism-based; design: dose 2 mg/kg, route intravenous; conditions: in vivo
[6] = AUC (0 to infinity) in Sprague-Dawley rat at 10 mg/kg, po; type: ADME, organism-based; design: time infinity, dose 10 mg/kg, route oral; conditions: plasma
[7] = Cmax in Sprague-Dawley rat at 10 mg/kg, po; type: ADME, organism-based; design: dose 10 mg/kg, route oral; conditions: in vivo
[8] = Volume of distribution in Sprague-Dawley rat at 2 mg/kg, iv; type: ADME, organism-based; design: dose 2 mg/kg, route intravenous; conditions: in vivo, read-out: Vdss
[9] = Mean residence time in Sprague-Dawley rat; type: ADME, organism-based; conditions: in vivo
[10] = target: Tyrosine-protein kinase Lck (Homo sapiens, UniProt P06239); assay: Inhibition of Lck by radioactive filtration assay
[11] = Oral bioavailability in Sprague-Dawley rat at 10 mg/kg, po; type: ADME, organism-based; conditions: in vivo
[12] = target: T3, Mitogen-activated protein kinase 14 (Homo sapiens, UniProt Q16539); assay: Inhibition of p38-alpha by radioactive filtration assay
T3 sequence (Q16539 whole entry): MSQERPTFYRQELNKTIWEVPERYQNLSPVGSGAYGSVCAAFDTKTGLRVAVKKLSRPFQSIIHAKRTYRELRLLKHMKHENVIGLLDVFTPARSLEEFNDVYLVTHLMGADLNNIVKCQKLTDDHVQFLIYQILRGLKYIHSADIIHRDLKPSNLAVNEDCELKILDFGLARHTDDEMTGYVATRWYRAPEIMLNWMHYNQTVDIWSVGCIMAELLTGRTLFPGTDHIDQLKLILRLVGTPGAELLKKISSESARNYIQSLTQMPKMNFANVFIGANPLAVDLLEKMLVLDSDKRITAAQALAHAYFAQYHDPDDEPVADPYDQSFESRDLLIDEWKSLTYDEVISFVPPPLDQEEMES

[13] = target: Mitogen-activated protein kinase 10 (Homo sapiens, UniProt P53779); assay: Inhibition of JNK3 by radioactive filtration assay
[14] = target: T2, Vascular endothelial growth factor receptor 2; assay: Inhibition of KDR autophosphorylation in EA.hy926 cells after […]; type: cell-based
[15] = target: Fibroblast growth factor receptor (Homo sapiens, UniProt P22607+P11362+P22455+P21802); assay: Inhibition of FGFR by radioactive filtration assay; type: protein assay
[16] = Solubility in phosphate buffer at pH 7.1; type: physicochemical
[17] = target: T3, Mitogen-activated protein kinase 14; assay: Inhibition of p38-alpha in THP1 cells assessed as TNFalpha levels; type: cell-based, THP-1
[18] = target: Proto-oncogene tyrosine-protein kinase Src (Homo sapiens, UniProt P12931); assay: Inhibition of Src by radioactive filtration assay
[19] = target: Mast/stem cell growth factor receptor Kit (Homo sapiens, UniProt P10721); assay: Inhibition of cKit by radioactive filtration assay
Mast/stem cell growth factor receptor Kit, sequence (P10721 whole entry): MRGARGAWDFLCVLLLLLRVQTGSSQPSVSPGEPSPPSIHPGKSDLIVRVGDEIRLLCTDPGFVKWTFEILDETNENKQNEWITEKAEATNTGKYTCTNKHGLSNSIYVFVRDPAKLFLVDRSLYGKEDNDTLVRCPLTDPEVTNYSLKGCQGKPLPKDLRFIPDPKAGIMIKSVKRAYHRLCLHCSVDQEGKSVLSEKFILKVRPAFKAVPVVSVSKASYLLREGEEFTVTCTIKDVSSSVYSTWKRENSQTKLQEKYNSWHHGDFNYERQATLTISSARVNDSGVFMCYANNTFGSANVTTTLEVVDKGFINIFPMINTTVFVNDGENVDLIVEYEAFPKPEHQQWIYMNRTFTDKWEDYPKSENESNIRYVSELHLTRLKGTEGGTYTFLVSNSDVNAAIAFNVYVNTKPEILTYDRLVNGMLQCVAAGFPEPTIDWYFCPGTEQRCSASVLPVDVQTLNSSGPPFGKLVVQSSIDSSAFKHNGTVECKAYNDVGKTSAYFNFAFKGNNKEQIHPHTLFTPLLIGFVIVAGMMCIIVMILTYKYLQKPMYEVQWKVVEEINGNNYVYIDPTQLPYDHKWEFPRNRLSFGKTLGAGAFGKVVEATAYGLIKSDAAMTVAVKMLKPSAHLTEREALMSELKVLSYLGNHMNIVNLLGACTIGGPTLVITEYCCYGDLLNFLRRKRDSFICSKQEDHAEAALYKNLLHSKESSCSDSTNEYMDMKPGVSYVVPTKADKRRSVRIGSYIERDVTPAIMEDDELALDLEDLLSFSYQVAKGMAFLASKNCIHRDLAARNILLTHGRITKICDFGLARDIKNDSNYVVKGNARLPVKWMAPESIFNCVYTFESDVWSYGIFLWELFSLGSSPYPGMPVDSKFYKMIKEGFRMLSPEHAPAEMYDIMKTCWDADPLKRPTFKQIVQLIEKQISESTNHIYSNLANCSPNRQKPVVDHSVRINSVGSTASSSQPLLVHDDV

[20] = Solubility in 0.01 N HCl at pH 2.0; type: physicochemical
[21] = target: Tyrosine-protein kinase JAK2 (Homo sapiens, UniProt O60674); assay: Inhibition of Jak2 by radioactive filtration assay
Tyrosine-protein kinase JAK2, sequence (O60674 whole entry): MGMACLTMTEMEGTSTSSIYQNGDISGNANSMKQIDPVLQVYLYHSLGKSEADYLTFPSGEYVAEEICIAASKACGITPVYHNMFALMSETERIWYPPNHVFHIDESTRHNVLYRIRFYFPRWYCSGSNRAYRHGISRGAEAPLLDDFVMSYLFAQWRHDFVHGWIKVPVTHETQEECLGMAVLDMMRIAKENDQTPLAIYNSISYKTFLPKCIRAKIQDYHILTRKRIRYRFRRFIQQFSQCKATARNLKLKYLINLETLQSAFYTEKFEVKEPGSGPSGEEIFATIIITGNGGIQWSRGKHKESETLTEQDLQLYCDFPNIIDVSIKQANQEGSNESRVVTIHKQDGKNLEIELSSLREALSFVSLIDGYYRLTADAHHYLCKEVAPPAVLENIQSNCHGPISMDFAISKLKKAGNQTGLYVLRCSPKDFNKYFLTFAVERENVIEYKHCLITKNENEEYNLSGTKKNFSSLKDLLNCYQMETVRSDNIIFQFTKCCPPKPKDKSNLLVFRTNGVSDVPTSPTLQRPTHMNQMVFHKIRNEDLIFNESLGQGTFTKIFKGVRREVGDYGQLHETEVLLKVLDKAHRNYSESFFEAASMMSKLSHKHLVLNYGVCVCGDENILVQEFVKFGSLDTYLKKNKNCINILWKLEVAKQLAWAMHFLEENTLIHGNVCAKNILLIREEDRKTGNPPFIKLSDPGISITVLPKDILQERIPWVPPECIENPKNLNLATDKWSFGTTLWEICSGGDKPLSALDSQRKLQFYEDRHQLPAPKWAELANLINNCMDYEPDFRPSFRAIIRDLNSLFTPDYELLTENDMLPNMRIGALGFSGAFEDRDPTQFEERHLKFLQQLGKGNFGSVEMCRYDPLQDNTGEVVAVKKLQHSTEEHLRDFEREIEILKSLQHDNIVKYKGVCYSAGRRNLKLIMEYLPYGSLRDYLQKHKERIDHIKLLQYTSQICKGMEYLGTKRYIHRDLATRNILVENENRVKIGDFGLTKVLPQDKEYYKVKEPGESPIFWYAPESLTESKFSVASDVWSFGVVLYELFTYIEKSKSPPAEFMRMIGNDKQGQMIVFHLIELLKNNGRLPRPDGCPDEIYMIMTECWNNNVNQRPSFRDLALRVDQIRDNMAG

[22] = target: Vascular endothelial growth factor receptor 2 and tyrosine-protein kinase TIE-2 (KDR and TIE2) (Homo sapiens) (UniProt P35968+Q02763); assay: Selectivity for Tie2 over KDR in cell based autophosphorylation assay
Vascular endothelial growth factor receptor 2 and tyrosine-protein kinase TIE-2 (KDR and TIE2) (Homo sapiens), sequence (P35968 whole entry, looked up): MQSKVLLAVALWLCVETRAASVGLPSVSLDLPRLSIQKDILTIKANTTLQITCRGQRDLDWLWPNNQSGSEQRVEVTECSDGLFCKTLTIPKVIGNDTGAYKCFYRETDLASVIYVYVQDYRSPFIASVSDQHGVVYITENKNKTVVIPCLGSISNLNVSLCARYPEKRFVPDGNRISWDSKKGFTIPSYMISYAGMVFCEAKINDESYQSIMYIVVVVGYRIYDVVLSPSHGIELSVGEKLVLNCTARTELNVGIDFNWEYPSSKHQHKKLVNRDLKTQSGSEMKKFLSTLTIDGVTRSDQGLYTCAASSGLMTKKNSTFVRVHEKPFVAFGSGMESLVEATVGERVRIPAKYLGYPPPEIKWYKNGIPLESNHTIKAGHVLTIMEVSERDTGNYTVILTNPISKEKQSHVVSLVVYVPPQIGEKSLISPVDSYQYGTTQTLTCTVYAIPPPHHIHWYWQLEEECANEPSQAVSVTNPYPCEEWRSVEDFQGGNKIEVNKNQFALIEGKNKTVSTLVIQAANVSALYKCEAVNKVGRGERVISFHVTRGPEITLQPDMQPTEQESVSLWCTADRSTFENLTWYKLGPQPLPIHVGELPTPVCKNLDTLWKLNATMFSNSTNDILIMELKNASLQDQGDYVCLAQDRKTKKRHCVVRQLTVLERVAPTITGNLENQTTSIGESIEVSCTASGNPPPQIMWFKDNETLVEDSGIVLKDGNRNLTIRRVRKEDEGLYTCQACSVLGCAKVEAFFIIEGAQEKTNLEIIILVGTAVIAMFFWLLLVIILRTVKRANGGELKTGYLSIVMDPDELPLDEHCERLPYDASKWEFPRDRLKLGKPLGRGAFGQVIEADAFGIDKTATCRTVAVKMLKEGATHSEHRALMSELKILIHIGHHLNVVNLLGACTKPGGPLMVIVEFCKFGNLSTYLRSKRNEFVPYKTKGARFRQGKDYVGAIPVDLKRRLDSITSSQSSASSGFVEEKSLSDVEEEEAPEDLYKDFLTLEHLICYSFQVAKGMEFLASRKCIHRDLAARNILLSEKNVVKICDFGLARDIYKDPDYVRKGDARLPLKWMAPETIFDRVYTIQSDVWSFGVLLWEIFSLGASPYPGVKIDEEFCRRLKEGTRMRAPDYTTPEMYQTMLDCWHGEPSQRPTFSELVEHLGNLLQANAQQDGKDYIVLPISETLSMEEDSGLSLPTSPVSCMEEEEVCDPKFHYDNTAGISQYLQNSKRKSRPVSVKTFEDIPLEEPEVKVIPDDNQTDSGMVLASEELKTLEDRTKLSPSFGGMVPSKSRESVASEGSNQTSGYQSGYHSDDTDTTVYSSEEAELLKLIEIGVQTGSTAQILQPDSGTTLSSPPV
Vascular endothelial growth factor receptor 2 and tyrosine-protein kinase TIE-2 (KDR and TIE2) (Homo sapiens), sequence (Q02763 whole entry, looked up): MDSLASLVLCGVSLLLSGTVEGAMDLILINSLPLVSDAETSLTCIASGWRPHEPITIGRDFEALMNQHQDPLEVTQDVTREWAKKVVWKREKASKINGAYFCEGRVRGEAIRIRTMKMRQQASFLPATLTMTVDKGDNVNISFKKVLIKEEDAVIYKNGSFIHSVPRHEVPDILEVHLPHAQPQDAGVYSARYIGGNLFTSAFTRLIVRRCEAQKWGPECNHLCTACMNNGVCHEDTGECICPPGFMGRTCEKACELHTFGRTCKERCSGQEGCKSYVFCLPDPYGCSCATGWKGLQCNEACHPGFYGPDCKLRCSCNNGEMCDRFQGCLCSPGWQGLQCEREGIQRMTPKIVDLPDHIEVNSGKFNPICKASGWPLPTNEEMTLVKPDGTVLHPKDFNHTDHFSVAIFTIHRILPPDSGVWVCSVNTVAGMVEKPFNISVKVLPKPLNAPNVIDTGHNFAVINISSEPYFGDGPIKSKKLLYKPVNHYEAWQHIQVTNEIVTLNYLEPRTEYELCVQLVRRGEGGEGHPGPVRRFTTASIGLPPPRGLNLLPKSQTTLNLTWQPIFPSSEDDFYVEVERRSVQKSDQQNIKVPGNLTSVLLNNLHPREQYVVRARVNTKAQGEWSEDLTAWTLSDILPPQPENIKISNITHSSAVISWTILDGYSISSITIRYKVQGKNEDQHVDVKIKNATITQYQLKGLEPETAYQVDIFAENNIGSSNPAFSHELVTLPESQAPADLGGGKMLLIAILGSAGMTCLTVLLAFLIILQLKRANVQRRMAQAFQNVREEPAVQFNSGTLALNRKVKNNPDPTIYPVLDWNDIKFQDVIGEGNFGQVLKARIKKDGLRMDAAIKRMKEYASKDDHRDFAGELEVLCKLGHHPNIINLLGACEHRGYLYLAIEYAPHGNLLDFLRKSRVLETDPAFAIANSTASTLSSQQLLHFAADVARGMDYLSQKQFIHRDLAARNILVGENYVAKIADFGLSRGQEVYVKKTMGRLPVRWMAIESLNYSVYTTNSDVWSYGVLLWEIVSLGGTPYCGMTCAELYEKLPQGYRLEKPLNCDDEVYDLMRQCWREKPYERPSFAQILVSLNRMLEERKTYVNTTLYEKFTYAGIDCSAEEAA

T2 sequence (P35968 whole entry): as the sequence (P35968 whole entry, looked up) above
T1 sequence (Q02763 whole entry): as the sequence (Q02763 whole entry, looked up) above

SMILES	IC50 (Angiopoietin-1 receptor [1]) [µM]	IC50 [2] [µM]	clearance [3] [mL/min/kg]	IC50 (Angiopoietin-1 receptor [4]) [µM]	also measured
CNc1ncnc(-c2cccnc2Oc2cc(NC(=O)c3cccc(C(C)C)c3)cc(C(F)(F)F)c2)n1	0.055	25	–	–	–
CNc1ncnc(-c2cccnc2Oc2cc(NC(=O)c3cccc(OC(F)(F)C(F)F)c3)ccc2C)n1	0.016	1	14.8	0.033	half-life [5]: 1.7 h; AUC(0-inf) [6]: 509 ng·h/mL; Cmax [7]: 119 ng/mL; Vd [8]: 1.31 L/kg; MRT [9]: 1.5 h; IC50 [10]: 0.146 µM; bioavailability [11]: 4%; IC50 [12]: 0.047 µM; IC50 [13]: 40 µM; IC50 [14]: 4.3 µM; IC50 [15]: 5.36 µM; solubility [16]: 3 µg/mL (≈ 5.68 µM); IC50 [17]: 0.194 µM; IC50 [18]: 2.19 µM; IC50 [19]: 17.8 µM; solubility [20]: 21 µg/mL (≈ 39.7 µM); IC50 [21]: 1.75 µM
CNc1ncnc(-c2cccnc2Oc2cc(NC(=O)c3cccc(C(C)C)c3)ccc2F)n1	0.004	0.128	18.4	–	half-life [5]: 0.8 h; MRT [9]: 0.5 h
CNc1ncnc(-c2cccnc2Oc2cc(NC(=O)c3cccc(OC(F)(F)F)c3)ccc2C)n1	0.008	0.442	83	0.015	IC50 [14]: 0.54 µM
CNc1cc(-c2cccnc2Oc2cc(NC(=O)c3cccc(OC(F)(F)C(F)F)c3)ccc2C)ccn1	0.009	0.233	60.7	0.013	IC50 [14]: 0.943 µM
CNc1ncnc(-c2cccnc2Oc2cccc(NC(=O)c3cccc(C(C)C)c3)c2)n1	0.006	0.456	73.7	0.085	–
CNc1ncnc(-c2cccnc2Oc2cc(NC(=O)c3cccc(-n4cccc4)c3)ccc2C)n1	0.017	1.13	63.8	0.023	Ratio IC50 [22]: > 1000; IC50 [14]: 25 µM
CNc1ncnc(-c2cccnc2Oc2cc(NC(=O)c3cccc(C(F)(F)F)c3)ccc2C)n1	0.02	0.309	–	–	–

Stronger by IC50 [2], values ahead:

IC50 (Angiopoietin-1 receptor [1]) [µM]	IC50 [2] [µM]	clearance [3] [mL/min/kg]	IC50 (Angiopoietin-1 receptor [4]) [µM]	SMILES	also measured
–	0.061	–	–	Cc1ccc(NC(=O)c2cccc(C(F)(F)F)c2)cc1Nc1ncccc1-c1ccncn1	–
0.001	0.018	54.3	0.011	CNc1cc(-c2cccnc2Oc2cc(NC(=O)c3cccc(C(C)C)c3)ccc2C)ccn1	–
0.003	0.005	–	–	CNc1cc(-c2cccnc2Oc2cc(C(=O)Nc3cccc(C(C)C)c3)ccc2C)ccn1	–
0.001	0.117	65.7	0.005	CNc1ncnc(-c2cccnc2Oc2cc(NC(=O)c3cccc(C(C)C)c3)ccc2C)n1	–
0.001	0.02	–	–	CNc1ncnc(-c2cccnc2Oc2cc(C(=O)Nc3cccc(C(C)C)c3)ccc2C)n1	–
0.002	0.002	–	–	CNc1nccc(-c2cccnc2Oc2cc(NC(=O)c3cccc(C(C)C)c3)ccc2C)n1	–
0.004	0.018	–	–	CNc1cc(-c2cccnc2Oc2cccc(NC(=O)c3cccc(C(C)C)c3)c2)ccn1	–
0.006	0.009	–	–	CNc1cc(-c2cccnc2Oc2ccc(Cl)c(NC(=O)c3cccc(C(C)C)c3)c2)ccn1	–
0.013	0.038	–	–	CNc1nccc(-c2cccnc2Oc2cc(C(=O)Nc3cccc(C(C)C)c3)ccc2C)n1	–

Source: ChEMBL document CHEMBL1139197, “Synthesis, structural analysis, and SAR studies of triazine derivatives as potent, selective Tie-2 inhibitors” (Bioorg Med Chem Lett, 2007)
